{"source": "paper PMC7891582", "about": "(Journal of Clinical Pharmacology, 2020)", "key": {"CYP3A [1]": {"system": "CYP3A", "test": "Midazolam", "format": "in vivo, human"}, "CYP2C9 [2]": {"target": "CYP2C9 (Homo sapiens, UniProt P11712)", "sequence (P11712 whole entry)": "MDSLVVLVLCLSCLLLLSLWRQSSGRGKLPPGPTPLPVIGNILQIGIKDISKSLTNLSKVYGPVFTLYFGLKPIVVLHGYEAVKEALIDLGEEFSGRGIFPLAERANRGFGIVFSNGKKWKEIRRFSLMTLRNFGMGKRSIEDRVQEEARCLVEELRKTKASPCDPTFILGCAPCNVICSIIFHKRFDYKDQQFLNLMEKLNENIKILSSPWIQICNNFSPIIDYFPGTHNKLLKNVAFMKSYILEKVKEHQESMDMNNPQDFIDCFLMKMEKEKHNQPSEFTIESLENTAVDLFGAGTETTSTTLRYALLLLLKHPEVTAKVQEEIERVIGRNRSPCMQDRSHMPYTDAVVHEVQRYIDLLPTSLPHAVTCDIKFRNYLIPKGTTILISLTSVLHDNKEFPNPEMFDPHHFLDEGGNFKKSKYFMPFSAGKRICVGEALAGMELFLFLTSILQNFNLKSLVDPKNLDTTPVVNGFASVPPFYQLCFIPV", "test": "Tolbutamide", "format": "in vivo"}, "CYP2C19 [3]": {"target": "CYP2C19 (Homo sapiens, UniProt P33261)", "sequence (P33261 whole entry)": "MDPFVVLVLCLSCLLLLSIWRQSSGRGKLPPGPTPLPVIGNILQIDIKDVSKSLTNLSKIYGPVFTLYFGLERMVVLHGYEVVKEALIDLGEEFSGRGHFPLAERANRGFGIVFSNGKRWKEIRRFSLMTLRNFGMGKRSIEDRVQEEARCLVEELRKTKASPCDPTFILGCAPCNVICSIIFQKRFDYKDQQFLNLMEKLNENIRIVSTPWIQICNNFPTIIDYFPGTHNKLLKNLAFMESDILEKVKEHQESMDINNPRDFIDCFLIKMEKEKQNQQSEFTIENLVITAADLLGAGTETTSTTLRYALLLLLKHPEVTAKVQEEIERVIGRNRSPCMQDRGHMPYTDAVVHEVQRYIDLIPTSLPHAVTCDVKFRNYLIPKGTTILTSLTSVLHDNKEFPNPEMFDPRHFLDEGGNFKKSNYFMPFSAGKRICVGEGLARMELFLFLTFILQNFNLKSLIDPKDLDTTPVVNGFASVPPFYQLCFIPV", "test": "Omeprazole"}, "P‐gp [4]": {"target": "P‐gp (Homo sapiens, UniProt P08183)", "sequence (P08183 whole entry)": "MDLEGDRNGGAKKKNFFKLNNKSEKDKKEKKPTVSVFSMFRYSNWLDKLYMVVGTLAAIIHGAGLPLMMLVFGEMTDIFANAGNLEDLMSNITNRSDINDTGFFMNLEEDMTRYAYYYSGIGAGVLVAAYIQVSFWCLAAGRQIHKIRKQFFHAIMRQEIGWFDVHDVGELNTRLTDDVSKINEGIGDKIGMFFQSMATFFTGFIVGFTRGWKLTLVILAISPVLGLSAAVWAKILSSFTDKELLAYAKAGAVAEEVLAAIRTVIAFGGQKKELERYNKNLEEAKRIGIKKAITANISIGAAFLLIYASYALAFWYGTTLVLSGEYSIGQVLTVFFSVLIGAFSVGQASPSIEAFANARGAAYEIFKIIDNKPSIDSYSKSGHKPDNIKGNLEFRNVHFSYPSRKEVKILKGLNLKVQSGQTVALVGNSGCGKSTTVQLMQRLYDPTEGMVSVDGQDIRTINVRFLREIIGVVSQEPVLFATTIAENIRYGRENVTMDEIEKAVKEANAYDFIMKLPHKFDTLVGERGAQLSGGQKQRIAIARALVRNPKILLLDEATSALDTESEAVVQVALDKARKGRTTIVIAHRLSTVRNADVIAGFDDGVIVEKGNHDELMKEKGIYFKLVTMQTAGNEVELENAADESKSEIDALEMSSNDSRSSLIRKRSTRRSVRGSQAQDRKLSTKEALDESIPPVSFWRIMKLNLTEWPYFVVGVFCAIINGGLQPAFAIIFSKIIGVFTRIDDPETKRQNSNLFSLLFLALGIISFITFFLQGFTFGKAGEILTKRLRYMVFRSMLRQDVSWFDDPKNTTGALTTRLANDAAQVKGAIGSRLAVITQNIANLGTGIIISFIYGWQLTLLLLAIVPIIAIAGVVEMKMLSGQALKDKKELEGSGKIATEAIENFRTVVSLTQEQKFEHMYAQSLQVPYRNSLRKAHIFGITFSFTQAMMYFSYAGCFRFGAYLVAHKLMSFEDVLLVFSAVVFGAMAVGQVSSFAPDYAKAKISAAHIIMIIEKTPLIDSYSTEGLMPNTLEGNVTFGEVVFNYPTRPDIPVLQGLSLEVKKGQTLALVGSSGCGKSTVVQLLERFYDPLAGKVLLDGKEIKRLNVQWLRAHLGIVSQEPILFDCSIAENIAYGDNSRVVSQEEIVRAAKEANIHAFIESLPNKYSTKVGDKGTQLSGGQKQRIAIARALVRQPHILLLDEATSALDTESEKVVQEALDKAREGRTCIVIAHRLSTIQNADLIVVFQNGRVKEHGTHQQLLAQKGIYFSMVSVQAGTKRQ", "test": "Digoxin", "format": "in vivo"}, "CYP2C19 [5]": {"system": "CYP2C19", "conditions": "in vitro data; ref unpublished in vitro studies; cited from earlier work"}, "[6]": {"conditions": "cited from earlier work"}, "CYP3A [7]": {"system": "CYP3A", "conditions": "ref unpublished in vitro studies, cited from earlier work"}, "[8]": {"test": "Safety in midazolam/tolbutamide study", "format": "in vivo, human"}, "P‐gp [9]": {"system": "P‐gp", "conditions": "cited from earlier work"}, "CYP2C9 [10]": {"system": "CYP2C9", "conditions": "read-out: IC50 for CYP2C9 inhibition; in vitro; ref unpublished in vitro studies; cited from earlier work"}, "CYP3A [11]": {"system": "CYP3A", "conditions": "human liver microsome, concentration-dependent; ref unpublished data; cited from earlier work"}, "[12]": {"test": "Safety in omeprazole/digoxin study", "format": "in vivo, human"}, "[13]": {"conditions": "after multiple doses of pexidartinib"}, "[14]": {"conditions": "coadministration with single dose of pexidartinib"}, "[15]": {"conditions": "coadministered with single dose pexidartinib"}, "[16]": {"conditions": "omeprazole plus pexidartinib vs omeprazole only"}, "[17]": {"conditions": "coadministered with pexidartinib"}, "[18]": {"conditions": "coadministered with pexidartinib 1800 mg"}}, "note": "Entries after “also recorded” stand apart in the source; their conditions may differ.", "data": [{"smiles": "Cc1ncc2n1-c1ccc(Cl)cc1C(c1ccccc1F)=NC2", "note": "[midazolam]", "values": [{"measurement": "decrease in midazolam AUClast", "setting": "CYP3A [1]; [13]", "result": 52, "unit": "%"}, {"measurement": "decrease in midazolam Cmax", "setting": "CYP3A [1]; [13]", "result": 28, "unit": "%"}, {"measurement": "decrease in midazolam AUClast", "setting": "CYP3A [1]; [14]", "result": 21, "unit": "%"}, {"measurement": "decrease in midazolam Cmax", "setting": "CYP3A [1]; [14]", "result": 9, "unit": "%"}]}, {"smiles": "CCCCNC(=O)NS(=O)(=O)c1ccc(CO)cc1", "note": "[4‐hydroxy tolbutamide]", "values": [{"measurement": "exposure to 4-hydroxy tolbutamide", "setting": "CYP2C9 [2]; during pexidartinib coadministration", "result": "decrease"}]}, {"smiles": "COc1ccc2[nH]c([S+]([O-])Cc3ncc(C)c(OC)c3C)nc2c1", "note": "(stereo not drawn) [omeprazole]", "values": [{"measurement": "decrease in Cmax for omeprazole", "setting": "CYP2C19 [3]; [15]", "result": 37, "unit": "%"}, {"measurement": "omeprazole tmax", "setting": "CYP2C19 [3]; [15]", "result": 3, "unit": "h"}, {"measurement": "AUC(0-inf)", "setting": "CYP2C19 [3]; human, plasma, oral, 40 mg", "result": 1740, "unit": "ng·h/mL"}, {"measurement": "AUC(0-t)", "setting": "CYP2C19 [3]; human, plasma, oral, 40 mg", "result": 1730, "unit": "ng·h/mL"}, {"measurement": "tmax", "setting": "CYP2C19 [3]; human, plasma, oral, 40 mg", "result": 2.25, "unit": "h"}, {"measurement": "Cmax", "setting": "CYP2C19 [3]; human, plasma, po, 40 mg", "result": 908, "unit": "ng/mL"}, {"measurement": "AUCinf geometric LS mean ratio", "setting": "CYP2C19 [3]; [16]", "result": 83.2, "unit": "%"}, {"measurement": "AUClast geometric LS mean ratio", "setting": "CYP2C19 [3]; [16]", "result": 77.4, "unit": "%"}, {"measurement": "Cmax geometric LS mean ratio", "setting": "CYP2C19 [3]; [16]", "result": 62.8, "unit": "%"}]}, {"smiles": "C[C@H]1O[C@@H](O[C@H]2[C@@H](O)C[C@H](O[C@H]3[C@@H](O)C[C@H](O[C@H]4CC[C@@]5(C)[C@H](CC[C@@H]6[C@@H]5C[C@@H](O)[C@]5(C)[C@@H](C7=CC(=O)OC7)CC[C@]65O)C4)O[C@@H]3C)O[C@@H]2C)C[C@H](O)[C@@H]1O", "note": "[digoxin]", "values": [{"measurement": "effect on digoxin AUClast", "setting": "P‐gp [4]; [17]", "result": "no significant effect; also recorded: nonsignificant effect"}, {"measurement": "effect on digoxin time to reach Cmax or shape of plasma concentration-time curve", "setting": "P‐gp [4]; [17]", "result": "no apparent effect"}, {"measurement": "increase in digoxin AUClast", "setting": "P‐gp [4]; [18]", "result": 8, "unit": "%"}, {"measurement": "increase in digoxin Cmax", "setting": "P‐gp [4]; [18]", "result": 32, "unit": "%"}]}, {"smiles": "FC(F)(F)c1ccc(CNc2ccc(Cc3c[nH]c4ncc(Cl)cc34)cn2)cn1", "note": "[pexidartinib]", "values": [{"measurement": "in vivo effect on P-gp transport", "setting": "P‐gp [4]; digoxin probe", "result": "does not significantly affect"}, {"measurement": "time dependence of inhibitory effect on CYP2C19", "setting": "CYP2C19 [5]", "result": "not time dependent"}, {"measurement": "delay of tmax with high-fat meal", "setting": "[6]", "result": 1.5, "unit": "h"}, {"measurement": "effect of high-fat meal on exposure", "setting": "[6]", "result": "doubles"}, {"measurement": "elimination half-life", "setting": "[6]", "result": 26.6, "unit": "h"}, {"measurement": "accumulation ratio (exposure vs first dose)", "setting": "[6]; multiple dosing, twice-daily regimen", "result": "≈ 3.6 times"}, {"measurement": "tmax", "setting": "[6]; oral administration", "result": "≈ 2.5 hours"}, {"measurement": "type of in vitro effect on CYP3A", "setting": "CYP3A [7]; in vitro data", "result": "direct and time‐dependent inhibitor and an inducer"}, {"measurement": "IC50", "setting": "CYP3A [7]; read-out: IC50 for CYP3A inhibition, in vitro", "result": 16.7, "unit": "µM"}, {"measurement": "subjects with a grade 4 TEAE", "setting": "[8]; 30 subjects with tumors", "result": 4, "unit": "subjects"}, {"measurement": "subjects with grade 3 TEAEs", "setting": "[8]; 30 subjects with tumors", "result": 40, "unit": "%"}, {"measurement": "subjects who discontinued treatment due to pexidartinib-related TEAEs", "setting": "[8]; drug hypersensitivity, increased blood bilirubin", "result": 7, "unit": "%"}, {"measurement": "grade 4 TEAEs considered related to pexidartinib", "setting": "[8]; increased bilirubin", "result": 1}, {"measurement": "tolerability", "setting": "[8]; midazolam/tolbutamide study", "result": "generally well tolerated"}, {"measurement": "grade 3 TEAEs considered related to pexidartinib", "setting": "[8]; of 22 grade 3 TEAEs", "result": 9}, {"measurement": "in vivo effect on CYP2C9 (FDA criteria)", "setting": "CYP2C9 [2]; tolbutamide probe", "result": "weak inhibitor"}, {"measurement": "time dependence of inhibitory effect on P-gp", "setting": "P‐gp [9]; in vitro data, ref unpublished in vitro studies", "result": "not time dependent"}, {"measurement": "IC50", "setting": "P‐gp [9]; read-out: in vitro IC50 for P-gp, preclinical data, ref data on file", "result": 43.4, "unit": "µM"}, {"measurement": "in vivo effect on CYP2C19-mediated metabolism", "setting": "CYP2C19 [3]; omeprazole probe", "result": "does not significantly affect"}, {"measurement": "IC50", "setting": "CYP2C9 [10]", "result": 3.7, "unit": "µM"}, {"measurement": "in vivo effect on CYP3A (FDA criteria)", "setting": "CYP3A [1]; midazolam probe", "result": "moderate inducer"}, {"measurement": "effect on midazolam hydroxylation", "setting": "CYP3A [11]", "result": "activated midazolam hydroxylation"}, {"measurement": "TEAEs considered related to pexidartinib (all pruritus)", "setting": "[12]; 20 healthy subjects", "result": "Three"}, {"measurement": "intensity of TEAEs", "setting": "[12]; 20 healthy subjects", "result": "mild (grade 1)"}, {"measurement": "subjects who experienced a TEAE", "setting": "[12]; 20 healthy subjects, single dose 1800 mg", "result": 40, "unit": "%"}, {"measurement": "tolerability", "setting": "[12]; omeprazole/digoxin study", "result": "generally well tolerated"}]}, {"smiles": "OCc1ncc2n1-c1ccc(Cl)cc1C(c1ccccc1F)=NC2", "note": "[1‐hydroxy midazolam]", "values": [{"measurement": "exposure to 1-hydroxy midazolam", "setting": "CYP3A [1]; with or without concomitant pexidartinib", "result": "similar"}]}]}
